Experimental data: ChEMBL document CHEMBL1201862, “PubChem BioAssay data set” (2004)
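Tested at 5 concentrations; 48 h exposure; 96-well plates; endpoints linearly interpolated, else capped at highest concentration. The concentration for 50% growth inhibition is given as GI50.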 Calls of active or inactive are those of the source. Cut-off read from the data, not from the text of the source: active = GI50 up to about 1.1 µM and inactive = higher.

Key:
Assay in all cases: DTP human tumour cell line panel, 48 h
[1] = test system: 786-0
[2] = test system: A498
[3] = test system: A549
[4] = test system: ACHN
[5] = test system: CAKI-1
[6] = test system: CCRF-CEM
[7] = test system: COLO 205
[8] = test system: DMS-114
[9] = test system: DMS-273
[10] = test system: EKVX
[11] = test system: HCT-116
[12] = test system: HCT-15
[13] = test system: HL-60
[14] = test system: HT-29
[15] = test system: IGROV-1
[16] = test system: K562
[17] = test system: KM-20L2
[18] = test system: KM12
[19] = test system: LOX IMVI
[20] = test system: LXFL 529
[21] = test system: M14
[22] = test system: M19-MEL
[23] = test system: MOLT-4
[24] = test system: Malme-3M
[25] = test system: NCI-H460
[26] = test system: NCI-H522
[27] = test system: OVCAR-3
[28] = test system: OVCAR-5
[29] = test system: OVCAR-8
[30] = test system: RPMI-8226
[31] = test system: RXF 393
[32] = test system: SF-268
[33] = test system: SF-295
[34] = test system: SF-539
[35] = test system: SK-MEL-2
[36] = test system: SK-MEL-5
[37] = test system: SK-OV-3
[38] = test system: SN12C
[39] = test system: SNB-19
[40] = test system: SNB-75
[41] = test system: SNB-78
[42] = test system: SW-620
[43] = test system: TK-10
[44] = test system: U-251
[45] = test system: UACC-257
[46] = test system: UACC-62
[47] = test system: UO-31
[48] = test system: XF498
[49] = test system: DLD-1
[50] = test system: HCC 2998
[51] = test system: HOP-62
[52] = test system: NCI-H226
[53] = test system: NCI-H23
[54] = test system: OVCAR-4
[55] = test system: SK-MEL-28
[56] = test system: SR
[57] = test system: HOP-92

In the case of `CCOC(=O)CSc1cc[nH]c(=O)n1`, the GI50 [1] is reported as > 100 µM (inactive), the GI50 [2] is reported as > 100 µM (inactive) and the GI50 [3] is reported as > 100 µM (inactive). The GI50 [4] was > 100 µM (inactive), the GI50 [5] was > 100 µM (inactive) and the GI50 [6] was > 100 µM (inactive). For the same compound, the GI50 [7] was > 100 µM (inactive), the GI50 [8] was > 100 µM (inactive) and the GI50 [9] was > 100 µM (inactive). For the same compound, the GI50 [10] was > 100 µM (inactive), the GI50 [11] was > 100 µM (inactive) and the GI50 [12] was greater than 100 µM. The GI50 [13] was > 100 µM (inactive), the GI50 [14] was > 100 µM (inactive) and the GI50 [15] was > 100 µM (inactive). The GI50 [16] was > 100 µM (inactive), the GI50 [17] was > 100 µM (inactive) and the GI50 [18] was > 100 µM (inactive). For the same compound, the GI50 [19] was > 100 µM (inactive), the GI50 [20] was > 100 µM (inactive) and the GI50 [21] was > 100 µM (inactive). For the same compound, the GI50 [22] was > 100 µM (inactive), the GI50 [23] was > 100 µM (inactive) and the GI50 [24] was > 100 µM (inactive). The GI50 [25] was > 100 µM (inactive), the GI50 [26] was > 100 µM (inactive) and the GI50 [27] was > 100 µM (inactive). For the same compound, the GI50 [28] was > 100 µM (inactive), the GI50 [29] was > 100 µM (inactive) and the GI50 [30] was > 100 µM (inactive). For the same compound, the GI50 [31] was 31.6 µM (inactive), the GI50 [32] was > 100 µM (inactive) and the GI50 [33] was > 100 µM (inactive). For the same compound, the GI50 [34] was > 100 µM (inactive), the GI50 [35] was > 100 µM (inactive) and the GI50 [36] was > 100 µM (inactive). The GI50 [37] was > 100 µM (inactive), the GI50 [38] was > 100 µM (inactive) and the GI50 [39] was > 100 µM (inactive). The GI50 [40] was > 100 µM (inactive), the GI50 [41] was > 100 µM (inactive) and the GI50 [42] was > 100 µM (inactive). For the same compound, the GI50 [43] was > 100 µM (inactive), the GI50 [44] was > 100 µM (inactive) and the GI50 [45] was > 100 µM (inactive). The GI50 [46] was > 100 µM (inactive), the GI50 [47] was > 100 µM (inactive) and the GI50 [48] was 75 µM (inactive).
`CCOC(=O)C(NC(=O)c1nc[nH]c1/N=N/N(C)C)C(C)C` (configuration not stated) was tested, and the GI50 [1] was > 100 µM (inactive), the GI50 [2] was > 100 µM (inactive) and the GI50 [3] was > 100 µM (inactive). The GI50 [4] was > 100 µM (inactive), the GI50 [5] was > 100 µM (inactive) and the GI50 [6] was > 100 µM (inactive). For the same compound, the GI50 [7] was > 100 µM (inactive), the GI50 [49] was > 100 µM (inactive) and the GI50 [8] was > 100 µM (inactive). For the same compound, the GI50 [9] was > 100 µM (inactive), the GI50 [10] was > 100 µM (inactive) and the GI50 [50] was > 100 µM (inactive). The GI50 [11] was > 100 µM (inactive), the GI50 [12] was greater than 100 µM and the GI50 [13] was > 100 µM (inactive). For the same compound, the GI50 [51] was > 100 µM (inactive), the GI50 [14] was > 100 µM (inactive) and the GI50 [15] was > 100 µM (inactive). For the same compound, the GI50 [16] was > 100 µM (inactive), the GI50 [18] was > 100 µM (inactive) and the GI50 [19] was > 100 µM (inactive). The GI50 [20] was > 100 µM (inactive), the GI50 [21] was > 100 µM (inactive) and the GI50 [22] was > 100 µM (inactive). For the same compound, the GI50 [23] was > 100 µM (inactive), the GI50 [24] was > 100 µM (inactive) and the GI50 [52] was > 100 µM (inactive). The GI50 [53] was > 100 µM (inactive), the GI50 [25] was > 100 µM (inactive) and the GI50 [26] was > 100 µM (inactive). The GI50 [27] was > 100 µM (inactive), the GI50 [54] was > 100 µM (inactive) and the GI50 [28] was > 100 µM (inactive). The GI50 [29] was > 100 µM (inactive), the GI50 [30] was > 100 µM (inactive) and the GI50 [32] was > 100 µM (inactive). The GI50 [33] was > 100 µM (inactive), the GI50 [34] was > 100 µM (inactive) and the GI50 [55] was > 100 µM (inactive). For the same compound, the GI50 [35] was > 100 µM (inactive), the GI50 [36] was > 100 µM (inactive) and the GI50 [37] was > 100 µM (inactive). The GI50 [38] was > 100 µM (inactive), the GI50 [39] was > 100 µM (inactive) and the GI50 [40] was > 100 µM (inactive). The GI50 [56] was > 100 µM (inactive), the GI50 [42] was > 100 µM (inactive) and the GI50 [43] was > 100 µM (inactive). The GI50 [44] was 40.8 µM (inactive), the GI50 [45] was > 100 µM (inactive) and the GI50 [46] was > 100 µM (inactive). The GI50 [47] was > 100 µM (inactive).
With `COC1=CC23C=CC1[C@@H](c1ccccc1)C2=C(C)C(=O)N3C(=O)NC1CCCCC1` (some centres not stated) the GI50 [1] was 15.5 µM (inactive), the GI50 [2] was 25.6 µM (inactive) and the GI50 [3] was 24.7 µM (inactive). For the same compound, the GI50 [4] was 30.9 µM (inactive), the GI50 [5] was 16.9 µM (inactive) and the GI50 [6] was 25.7 µM (inactive). For the same compound, the GI50 [10] was 28.7 µM (inactive), the GI50 [50] was 21.6 µM (inactive) and the GI50 [11] was 15 µM (inactive). For the same compound, the GI50 [12] was 5.11 µM, the GI50 [13] was 21 µM (inactive) and the GI50 [51] was 21.5 µM (inactive). The GI50 [57] was 19 µM (inactive), the GI50 [14] was 19.7 µM (inactive) and the GI50 [15] was 61.2 µM (inactive). For the same compound, the GI50 [16] was 28.2 µM (inactive), the GI50 [17] was 22.2 µM (inactive) and the GI50 [18] was 31.3 µM (inactive). The GI50 [19] was 17 µM (inactive), the GI50 [21] was 19 µM (inactive) and the GI50 [23] was 18 µM (inactive). The GI50 [52] was 20.4 µM (inactive), the GI50 [53] was 18.5 µM (inactive) and the GI50 [25] was 20.1 µM (inactive). The GI50 [26] was 18.9 µM (inactive), the GI50 [27] was 24.2 µM (inactive) and the GI50 [28] was 23.7 µM (inactive). For the same compound, the GI50 [29] was 25.3 µM (inactive), the GI50 [31] was 3.45 µM (inactive) and the GI50 [32] was 15.8 µM (inactive). The GI50 [33] was 22.4 µM (inactive), the GI50 [34] was 19.4 µM (inactive) and the GI50 [55] was 18.5 µM (inactive). For the same compound, the GI50 [35] was 17.5 µM (inactive), the GI50 [36] was 14.9 µM (inactive) and the GI50 [37] was 39 µM (inactive). For the same compound, the GI50 [38] was > 10 µM (inactive), the GI50 [39] was 31.8 µM (inactive) and the GI50 [40] was 3.78 µM (inactive). For the same compound, the GI50 [41] was 26.4 µM (inactive), the GI50 [56] was 20.2 µM (inactive) and the GI50 [42] was 19.5 µM (inactive). For the same compound, the GI50 [43] was 26.7 µM (inactive), the GI50 [44] was 16.5 µM (inactive) and the GI50 [45] was 26.6 µM (inactive). For the same compound, the GI50 [46] was 26.5 µM (inactive) and the GI50 [47] was 20.7 µM (inactive).
With `BrC1=CCC23CC=C(Br)[C@H]4CC2(COC3)C[C@@H]1O4` (some centres not stated) the GI50 [1] was 33.2 µM (inactive), the GI50 [3] was > 100 µM (inactive) and the GI50 [4] was > 100 µM (inactive). For the same compound, the GI50 [6] was 24.4 µM (inactive), the GI50 [7] was > 100 µM (inactive) and the GI50 [8] was 28.4 µM (inactive). The GI50 [9] was 36.7 µM (inactive), the GI50 [10] was > 100 µM (inactive) and the GI50 [11] was 29.2 µM (inactive). The GI50 [12] was 47.9 µM, the GI50 [13] was 6.41 µM (inactive) and the GI50 [51] was > 100 µM (inactive). The GI50 [14] was > 10 µM (inactive), the GI50 [15] was > 100 µM (inactive) and the GI50 [16] was 27.5 µM (inactive). The GI50 [17] was 59.3 µM (inactive), the GI50 [18] was 54.2 µM (inactive) and the GI50 [19] was 71.6 µM (inactive). The GI50 [20] was 40.3 µM (inactive), the GI50 [21] was > 100 µM (inactive) and the GI50 [22] was > 100 µM (inactive). The GI50 [23] was 25.8 µM (inactive), the GI50 [24] was > 100 µM (inactive) and the GI50 [52] was 44.1 µM (inactive). For the same compound, the GI50 [53] was 37.2 µM (inactive), the GI50 [25] was 48 µM (inactive) and the GI50 [26] was 24.3 µM (inactive). For the same compound, the GI50 [27] was 63.5 µM (inactive), the GI50 [54] was 27 µM (inactive) and the GI50 [28] was 21.2 µM (inactive). For the same compound, the GI50 [29] was 63.8 µM (inactive), the GI50 [30] was 39.6 µM (inactive) and the GI50 [31] was 32 µM (inactive). The GI50 [32] was 16.9 µM (inactive), the GI50 [33] was > 100 µM (inactive) and the GI50 [34] was 84.9 µM (inactive). For the same compound, the GI50 [55] was 22.6 µM (inactive), the GI50 [35] was 54.7 µM (inactive) and the GI50 [36] was > 100 µM (inactive). The GI50 [38] was 52 µM (inactive), the GI50 [39] was 37.9 µM (inactive) and the GI50 [40] was 20.1 µM (inactive). The GI50 [41] was 35.2 µM (inactive), the GI50 [56] was 23.4 µM (inactive) and the GI50 [42] was 55 µM (inactive). For the same compound, the GI50 [43] was 80.2 µM (inactive), the GI50 [44] was 79.3 µM (inactive) and the GI50 [46] was 46.1 µM (inactive). For the same compound, the GI50 [47] was 28.2 µM (inactive) and the GI50 [48] was 76.6 µM (inactive).
